# From patent US20240158446A1, “CYCLIC COMPOUND HAVING SELECTIVE INHIBITORY ACTION ON KRAS OVER HRAS AND NRAS” (CHUGAI SEIYAKU KABUSHIKI KAISHA, priority 2021, published 2024)
# Read-outs that look alike come from different tables or passages of the source. *1 amine or outer side, *2 acyl side, *3 side chain or, on linkers, in order; H or OH if unused. Where a SMILES comes first, the peptide text is derived from it. Bridges are numbered along the chain shown (N, C = ends). [ ]: non-standard residue; d: D form. The star is where a group is joined. hPhe(3-Cl-4-CF3) = N[C@@H](CCc1ccc(C(F)(F)F)c(Cl)c1)C(=O)O; NPrPhe(4-CF3) = CCCN[C@@H](Cc1ccc(C(F)(F)F)cc1)C(=O)O; X30 = C=CCCN([C@@H](Cc1ccc(C)cc1)C(=O)[*:2])[*:1]; NPrPhe(4-Me) = CCCN[C@@H](Cc1ccc(C)cc1)C(=O)O; NMeGly(cPent) = CN[C@H](C(=O)O)C1CCCC1; Pro(4,4-F2) = O=C(O)[C@@H]1CC(F)(F)CN1; Hyp = O=C(O)[C@@H]1C[C@@H](O)CN1; NMeD = CN[C@@H](CC(=O)O)C(=O)O; NMeL = CN[C@@H](CC(C)C)C(=O)O; NMeNva = CCC[C@H](NC)C(=O)O; Morpholide = C1CN(*)CCO1; NMeA = CN[C@@H](C)C(=O)O; Ac5c = NC1(C(=O)O)CCCC1; Aze = O=C(O)[C@@H]1CCN1; NEtG = CCNCC(=O)O; Sar = CNCC(=O)O
# Tests used:
# [1] = molecular target: GDP-bound HRAS wild-type protein (Homo sapiens, UniProt P01112); test: Binding to HRAS by surface plasmon resonance (SPR), Single Cycle Kinetics; conditions: SPR, GDP-bound HRAS wild-type protein vs GDP-bound KRAS wild-type protein
# Sequence of GDP-bound HRAS wild-type protein (P01112 whole entry): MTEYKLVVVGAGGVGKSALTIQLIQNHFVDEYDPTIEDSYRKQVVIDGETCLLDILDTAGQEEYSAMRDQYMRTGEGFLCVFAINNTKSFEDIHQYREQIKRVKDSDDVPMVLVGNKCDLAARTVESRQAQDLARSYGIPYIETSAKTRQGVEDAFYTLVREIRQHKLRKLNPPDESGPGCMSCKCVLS
# [2] = molecular target: GDP-bound NRAS wild-type protein (Homo sapiens, UniProt P01111); test: Binding to NRAS by surface plasmon resonance (SPR), Single Cycle Kinetics; conditions: SPR, GDP-bound NRAS wild-type protein vs GDP-bound KRAS wild-type protein
# Sequence of GDP-bound NRAS wild-type protein (P01111 whole entry): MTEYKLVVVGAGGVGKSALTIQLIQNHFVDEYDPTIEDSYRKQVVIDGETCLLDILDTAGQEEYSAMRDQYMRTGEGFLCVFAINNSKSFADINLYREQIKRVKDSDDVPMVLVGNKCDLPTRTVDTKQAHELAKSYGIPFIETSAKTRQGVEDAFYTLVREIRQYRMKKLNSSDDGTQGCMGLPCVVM
# [3] = molecular target: GDP-bound KRAS wild-type protein (Homo sapiens, UniProt P01116); test: Binding to KRAS by surface plasmon resonance (SPR), Single Cycle Kinetics; conditions: GDP-bound KRAS wild-type protein, read-out: KRAS KD
# Sequence of GDP-bound KRAS wild-type protein (P01116 whole entry): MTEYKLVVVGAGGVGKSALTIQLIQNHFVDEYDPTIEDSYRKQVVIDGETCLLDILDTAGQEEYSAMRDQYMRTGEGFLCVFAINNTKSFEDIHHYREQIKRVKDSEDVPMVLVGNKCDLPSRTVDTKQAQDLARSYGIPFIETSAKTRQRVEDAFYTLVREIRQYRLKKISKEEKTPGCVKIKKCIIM
# [4] = SPR Single Cycle Kinetics, 1:1 binding model
# [5] = SPR, Single Cycle Kinetics, 1:1 binding model
"Kd [3, 4]",Compound,HRAS/KRAS (ratio of KD value for HRAS to KD value for KRAS) [1],NRAS/KRAS (ratio of KD value for NRAS to KD value for KRAS) [2],HRAS/KRAS (ratio of KD value with respect to HRAS to KD value with respect to KRAS) [1],NRAS/KRAS (ratio of KD value with respect to NRAS to KD value with respect to KRAS) [2],further results
0.11 nM,"CCC[C@H]1C(=O)N[C@@H]([C@@H](C)CC)C(=O)N(C)[C@@H](C)C(=O)N2CC[C@H]2C(=O)N(CCC)[C@@H](Cc2ccc(C(F)(F)F)cc2)C(=O)N(C)CC(=O)N[C@@H](CCc2ccc(C(F)(F)F)c(Cl)c2)C(=O)N2CC(F)(F)C[C@H]2C(=O)NC2(CCCC2)C(=O)N(C)[C@@H](C2CCCC2)C(=O)N(C)[C@H](C(=O)N2CCOCC2)CC(=O)N1C [PP0205] ([NMeNva]I[NMeA][Aze][NPrPhe(4-CF3)][Sar][hPhe(3-Cl-4-CF3)][Pro(4,4-F2)][Ac5c][NMeGly(cPent)][NMeD]-Morpholide; lactam N-11)",C (A compound having a KD ratio of 0.1 or more and less than 3 is denoted as C),C (A compound having a KD ratio of 0.1 or more and less than 3 is denoted as C),,,
,CC[C@H](C)[C@@H]1NC(=O)[C@H](CC2CC2)N(C)C(=O)C[C@@H](C(=O)N(C)CC)N(C)C(=O)[C@H](C2CCCC2)N(C)C(=O)C2(CCC2)NC(=O)[C@@H]2CC(F)(F)CN2C(=O)[C@H](CCc2cc(F)c(C(F)(F)F)c(F)c2)NC(=O)CN(C)C(=O)[C@H](Cc2ccc(C(F)(F)F)cc2)N2CC/C=C\C[C@@H](C2=O)N(C)C(=O)CN(C)C1=O [PP1538],,,,,"HRAS/KRAS (ratio of KD value for HRAS to KD value for KRAS) ([1]; KD ratio class): B (a compound having 3 or more and less than 10 is denoted as B); NRAS/KRAS (ratio of KD value for NRAS to KD value for KRAS) ([2]; KD ratio class): A (a compound having 10 or more and less than 20 is denoted as A); Kd [3, 5]: 0.086 nM"
,CC[C@H](C)[C@@H]1NC(=O)[C@H](CC2CCCC2)N(C)C(=O)C[C@@H](C(=O)N(C)C)N(C)C(=O)[C@@H](C2CCCC2)N(C)C(=O)C2(CCC2)NC(=O)[C@@H]2[C@@H](OCC(F)F)CCN2C(=O)[C@@H](CCc2cc(F)c(C(F)(F)F)c(F)c2)NC(=O)CN(C)C(=O)[C@@H](Cc2ccc(C)cc2)N2CC/C=C\C[C@H](C2=O)N(C)C(=O)CN(C)C1=O [PP1536],,,,,"HRAS/KRAS (ratio of KD value for HRAS to KD value for KRAS) ([1]; KD ratio class): B (a compound having 3 or more and less than 10 is denoted as B); NRAS/KRAS (ratio of KD value for NRAS to KD value for KRAS) ([2]; KD ratio class): A (a compound having 10 or more and less than 20 is denoted as A); Kd [3, 5]: 0.2 nM"
6.9 nM,CCCN1C(=O)CN(CC)C(=O)CN(C)C(=O)[C@H]([C@@H](C)CC)NC(=O)[C@H](CC(C)C)N(C)C(=O)C[C@@H](C(=O)N2CCOCC2)N(C)C(=O)[C@H](C2CCCC2)N(C)C(=O)C2(CCCC2)NC(=O)[C@@H]2CCCN2C(=O)[C@H](CCc2ccc(C(F)(F)F)c(Cl)c2)NC(=O)CN(CC)C(=O)[C@@H]1Cc1ccc(C)cc1 [PP0069] ([NMeL]I[Sar][NEtG][NPrPhe(4-Me)][NEtG][hPhe(3-Cl-4-CF3)]P[Ac5c][NMeGly(cPent)][NMeD]-Morpholide; lactam N-11),C (A compound having a KD ratio of 0.1 or more and less than 3 is denoted as C),C (A compound having a KD ratio of 0.1 or more and less than 3 is denoted as C),,,
0.012 nM,C#CC[C@H]1C(=O)N[C@@H]([C@@H](C)CC)C(=O)N(C)CC(=O)N(C)[C@H]2CCCCN(C2=O)[C@@H](Cc2ccc(C(F)(F)F)cc2)C(=O)N(C)CC(=O)N[C@@H](CCc2cc(F)c(C(F)(F)F)c(F)c2)C(=O)N2C[C@H](OCC)C[C@H]2C(=O)NC2(CCC2)C(=O)N(C)[C@@H](C2CCCC2)C(=O)N(C)[C@H](C(=O)N(C)C)CC(=O)N1C [PP0696],,,B (a compound having 3 or more and less than 10 is denoted as B),B (a compound having 3 or more and less than 10 is denoted as B),
,CC[C@H](C)[C@@H]1NC(=O)[C@H](COC)N(C)C(=O)C[C@@H](C(=O)N2CCOCC2)N(C)C(=O)[C@H](C2CCCC2)N(C)C(=O)C2(CCCC2)NC(=O)[C@@H]2CCCN2C(=O)[C@H](CCc2cc(F)c(C(F)(F)F)c(F)c2)NC(=O)CN(C)C(=O)[C@H](Cc2ccc(C(F)(F)F)cc2)N2CCCCC[C@@H](C2=O)N(C)C(=O)CN(C)C1=O [PP0845],B (a compound having 3 or more and less than 10 is denoted as B),B (a compound having 3 or more and less than 10 is denoted as B),,,"Kd ([3]; SPR, Single Cycle Kinetics): 2.2 nM"
0.17 nM,C=CCCN1C(=O)[C@@H]2CCN2C(=O)[C@H](C)N(C)C(=O)[C@H]([C@@H](C)CC)NC(=O)[C@H](CC(C)C)N(C)C(=O)C[C@@H](C(=O)N2CCOCC2)N(C)C(=O)[C@H](C2CCCC2)N(C)C(=O)C2(CCCC2)NC(=O)[C@@H]2CCCN2C(=O)[C@H](CCc2ccc(C(F)(F)F)c(Cl)c2)NC(=O)CN(C)C(=O)[C@@H]1Cc1ccc(C)cc1 [PP0089] ([NMeL]I[NMeA][Aze][X30][Sar][hPhe(3-Cl-4-CF3)]P[Ac5c][NMeGly(cPent)][NMeD]-Morpholide; lactam N-11),B (a compound having 3 or more and less than 10 is denoted as B),C (A compound having a KD ratio of 0.1 or more and less than 3 is denoted as C),,,
0.47 nM,CCO[C@@H]1C[C@H]2C(=O)NC3(CCC3)C(=O)N(C)[C@@H](C3CCCC3)C(=O)N(C)[C@H](C(=O)N3CCOCC3)CC(=O)N(C)[C@@H](CC)C(=O)N[C@@H]([C@@H](C)CC)C(=O)N(C)CC(=O)N(C)[C@H]3CCCCCN(C3=O)[C@@H](Cc3ccc(C(F)(F)F)cc3)C(=O)N(C)CC(=O)N[C@@H](CCc3cc(F)c(C(F)(F)F)c(F)c3)C(=O)N2C1 [PP0678],,,B (a compound having 3 or more and less than 10 is denoted as B),B (a compound having 3 or more and less than 10 is denoted as B),
0.031 nM,CCCN1C(=O)[C@@H]2CCN2C(=O)CN(C)C(=O)[C@H]([C@@H](C)CC)NC(=O)[C@H](CC(C)C)N(C)C(=O)C[C@@H](C(=O)N(C)C)N(C)C(=O)[C@H](C2CCCC2)N(C)C(=O)C2(CCCC2)NC(=O)[C@@H]2C[C@@H](OCC)CN2C(=O)[C@H](CCc2ccc(C(F)(F)F)c(Cl)c2)NC(=O)CN(C)C(=O)[C@@H]1Cc1ccc(C(F)(F)F)cc1 [PP0444] ([NMeL]I[Sar][Aze][NPrPhe(4-CF3)][Sar][hPhe(3-Cl-4-CF3)][Hyp](Et)[Ac5c][NMeGly(cPent)][NMeD]-NMe2; lactam N-11),,,C (A compound having a KD ratio of 0.1 or more and less than 3 is denoted as C),C (A compound having a KD ratio of 0.1 or more and less than 3 is denoted as C),
,CCO[C@@H]1C[C@H]2C(=O)NC3(CCC3)C(=O)N(C)[C@@H](C3CCCC3)C(=O)N(C)[C@H](C(=O)N(C)C)CC(=O)N(C)[C@@H](COC)C(=O)N[C@@H]([C@@H](C)CC)C(=O)NCC(=O)N(C)[C@H]3CCCCCN(C3=O)[C@@H](Cc3ccc(C(F)(F)F)cc3)C(=O)N(C)CC(=O)N[C@@H](CCc3cc(F)c(C(F)(F)F)c(F)c3)C(=O)N2C1 [PP0859],B (a compound having 3 or more and less than 10 is denoted as B),B (a compound having 3 or more and less than 10 is denoted as B),,,"Kd ([3]; SPR, Single Cycle Kinetics): 0.31 nM"
